For one test, the system named is erythrocytes (RBCs). The test is described as follows: Proton induced uptake and efflux in erythrocytes (RBCs), flow cytometry. It is filed as cell-based. As for the experimental part:
As shown, PIU in erythrocytes depends on external pH in a constant rate. […] Flow cytometry analyses include FITC intensity geometrical mean±SD presented as fold induction relative to background. n=9 in 3 independent experiments.
RBCs were exposed to external pH 5.4 for time durations of 10, 15, 30, 45 and 60 minutes. […] Flow cytometry analyses in terms of geometrical mean±SD are presented as fold induction relative the fluorescent intensity in the first group (10 min). No statistical difference is found in PIU rate for the different groups (p >0.05 by one way ANOVA, n=9 in 3 independent experiments).
Flow cytometry analyses include FITC intensity geometrical mean±SD presented as fold induction relative to background. n=9 in 3 independent experiments.
The cells were washed and divided into 2 groups, suspended in fresh solution of either pH 7.4 or pH 5.4. Cells from each group were incubated for durations of 10, 20, 30, 45 and 60 minutes, before being analyzed by flow cytometry. Results given in terms of geometrical mean±SD are presented as fold induction relative to cells analyzed immediately following exposure to low pH. n=8 in 2 independent experiments.
Following treatment the cells were washed in PBS-G and analyzed by flow cytometry. Results are presented as geometrical mean of FITC intensity±SD for 50,000 cells per sample.
This apparent saturation may be attributed to a competitive efflux process. […] Next, the cells were washed and re-suspended in fresh PBS-G of either pH 7.4 or 5.4, in the absence of dextran and then incubated at 37° C. for durations of 10, 20, 30, 45 and 60 minutes, followed by flow cytometry analysis (FIG. 32B). Dextran concentrations in RBCs incubated under physiological conditions (pH 7.4) suffers some gradual 20% decrease in value for 60 minutes after PIPC(P<0.05, one tail t-test). However, when RBCs are incubated at pH 5.4, the dextran concentration decline rapidly during the first 10 minutes, losing 50% of their initial value after 20 minutes and continue to decrease at a declining rate for the rest of the period monitored. It appears that long exposure of RBCs to low pH inflict some damage to the cells ability to retain the uptake cargo molecule (FIG. 32b). In an exemplary embodiment of the invention, RBCs are instead subjected to a pulsed treatment regime. […] In an exemplary embodiment of the invention, pulsed uptake is used to avoid/reduce causing leakage in cells and thus reduce efflux. Optionally or alternatively, cells that are sensitive to low pH can be treated. For example, one hour exposures separated by two hour rest periods may be used for siRNA transfection of pH-sensitive cells. […]

In another test the test system is COS 5-7 cells. The experiment in a line: Uptake after one minute of chemically induced low pH (HCl added to HBSS suspension), FACS. It is filed as cell-based, African green monkey. Conditions: for Folds Uptake mean: 1 min, 10 μM Dextran-FITC. How it is done:
The following tables show a connection between pH and current. […] The values in the tables are shown as folds relative to the uptake in cells unexposed to any of the treatments. […] The results are expected to be substantially independent of cell type and molecule used, except for a cell-specific change and a molecule specific change.
Cells (COS 5-7) were harvested, re-suspended in DMEM (1 mg/ml glucose, 5% FCS), and incubated (37°, 5% CO2) as designated by the experiment. For uploading the cells with either H2DCF-DA (20 μM) or Bis-DHA (1 mM) incubation lasted 90 minutes. When no pre-treatments were required, the cells were kept in the DMEM for 30 minutes. Following incubation, the cells were centrifuged at 400g for 1 min, the solution aspirated, and cells re-suspended in HBSS exposure media.
Exposure of cells to pulse acidification was through the addition of HCl to the HBSS suspension for 60 seconds, terminated by the addition of a three fold larger volume of DMEM-H.
Cell suspensions were centrifuged (400g for one minute), their solutions aspirated and they were re-suspended with 0.5 ml DMEM-H supplemented with 10u/ml dextranase (Sigma-Aldrich) for 10 minutes at RT. Cells were centrifuged again; their solution aspirated and they were re-suspended with 0.2 ml DMEM-H. PI (25 μg/ml) as a label for permeabilized cells and tryphan blue (0.01% w/v) as a fluorescence quenching agent for extracellular FITC (36) were added to each sample shortly before analysis
Flow cytometry analysis was carried out by FACSort (Becton @ Dickson, San Jose, Calif.), employing a 488-nm argon laser excitation. The green fluorescence of FITC was measured via 530/30 nm filter, the red fluorescence of PI was detected via a 585/42 nm filter. […] Ten thousand cells were examined for each sample and data were collected in the list mode. The analysis of flow cytometry data was performed using WINMDI 2.9 software (Joe Trotter, The Scripps Research Institute). For each sample the geometrical mean was calculated without including PI stained cells. Cell intensity was determined as fold of induction relative to cells' constitutive uptake.
After one minute incubation, cell suspensions were immediately diluted with 3 fold larger volume of cold buffered DMEM to restore pH to a normal pH of 7.5.

With Dextran-FITC, the “external pH at which uptake is significant relative to autofluorescence at pH 7.4” value with erythrocytes (RBCs) (70 kD dextran-FITC 10 μM, 5 minutes, P<0.05) is on record as below 6 pH. Besides, in the test on erythrocytes (RBCs) (incubated at pH 5.4, 37° C., after 20 minutes), the “loss of initial intracellular dextran concentration after loading” value is given as 50%. Besides, in the test on erythrocytes (RBCs) (incubated at pH 7.4, 37° C., 60 minutes after 10 minutes loading at pH 5.4), the “decrease of intracellular dextran concentration after loading” value is recorded as 20%. In addition, the “intracellular concentration after three cycles of 10 minutes exposure versus one exposure of 30 minutes” value with erythrocytes (RBCs) (low pH solution, cycles separated by washing and 10 minutes in PBS-G) is “higher concentration”. Moreover, the “Folds Uptake mean” value in the test with COS 5-7 cells (pH 1.6, relative to unexposed cells) turned out to be 48.09 folds; in the test with COS 5-7 cells (pH 1.9, relative to unexposed cells) it was 42.47 folds; in the test with COS 5-7 cells (pH 2.5, relative to unexposed cells) it was 47.62 folds; with COS 5-7 cells (pH 2.9, relative to unexposed cells), 45.54 folds; with COS 5-7 cells (pH 3.1, relative to unexposed cells), 41.25 folds; in the test on COS 5-7 cells (pH 3.3, relative to unexposed cells), 20.14 folds. The “Folds Uptake mean” value is 9.575 folds with COS 5-7 cells (pH 3.5, relative to unexposed cells); 7.679 folds in the test with COS 5-7 cells (pH 3.7, relative to unexposed cells); 4.776 folds in the test on COS 5-7 cells (pH 4, relative to unexposed cells); 3.856 folds with COS 5-7 cells (pH 4.7, relative to unexposed cells); 2.594 folds in the test on COS 5-7 cells (pH 5, relative to unexposed cells); 2.636 folds with COS 5-7 cells (pH 5.8, relative to unexposed cells). The “Folds Uptake mean” value is 1.483 folds with COS 5-7 cells (pH 6, relative to unexposed cells); 1.619 folds in the test on COS 5-7 cells (pH 6.25, relative to unexposed cells); 1 folds in the test with COS 5-7 cells (pH 7.4 (reference)). Besides, the “pH at which uptake reaches saturation” value in the test with COS 5-7 cells (steep elevation of uptake starting at pH 4) is 3 pH.

Source of the values: patent publication US20130004581A1, “CONTROLLING UPTAKE BY CELLS” (Ramot at Tel-Aviv University Ltd., priority 2010, published 2013).
